From article PMC11375786, “Induction of Paraptotic Cell Death in Cancer Cells by Triptycene–Peptide Hybrids and the Revised Mechanism of Paraptosis II” (Biochemistry, 2024)
Where two headings read alike, the source gives them in different places. Numbered stars: 1 amine (or outer) side, 2 acyl side, 3 side chain; on linkers, the order of the positions; unused ones are H or OH. Bridge positions count the residues as written; N and C are the ends. Square brackets hold non-standard residues; d marks the D form. Peptide text beside a SMILES is read from it. I, II: the chains in the order shown. X1 = O=C(COc1cccc2c1C1c3c(OCC(=O)NCCCCCCCCN[*:2])cccc3C2c2cccc(OCC(=O)NCCCCCCCCN[*:3])c21)NCCCCCCCCN[*:1]; Cha = N[C@@H](CC1CCCCC1)C(=O)O

What was measured:
[1] = test system: Ca^2+ concentrations in mitochondria and cytosol in A549 cells; test: Rhod-2/AM and Rhod-4/AM emission (mitochondrial and cytosolic Ca2+) in A549 cells; format: cell-based, human; details: 4 10 μM 1 h; celastrol 100 μM 2–6 h
Description: (§1) Jurkat, HeLa-S3, and A549 cells (2.0 × 10^5 cells) were preincubated with Rhod-2/AM (final concentration = 5 μM) or Rhod-4/AM (final concentration = 5 μM) in medium under 5% CO2 at 37 °C for 30 min and then treated with 4 (final concentration = 2.5, 5, or 10 μM) for 0, 15, 30, 45, and 60 min. HeLa-S3 and A549 cells were detached by accutase, immediately after which the cells were suspended in 300 μL of cell culture medium and then analyzed on a flow cytometer (FACS Calibur cytometer, Becton), and the data were analyzed using the FlowJo software (FlowJo, LCC).
(§2) Jurkat, HeLa-S3, A549, and IMR90 cells (2.0 × 10^5 cells) were stained with Rhod-2/AM or Rhod-4/AM (final concentration = 5 μM) for 30 min at 37 °C under 5% CO2. The cells were washed with PBS and were treated with 4 (final concentration = 2.5, 5, or 10 μM) in cell culture medium for 30 and 60 min at 37 °C under 5% CO2. To test the effect of celastrol and cisplatin in HeLa-S3 and A549 cells, the cells were incubated with celastrol (final concentration = 100 μM) and cisplatin (final concentration = 100 μM) for 2–6 h. After washing with PBS, the cells were observed via fluorescence microscopy (BZ-X800, Keyence) using a Greiner CELLview Petri dish (35 × 10 mm^2). Emission images were observed using a TRITC filter (excitation 540 nm, emission 605 nm).
(§3) Jurkat, HeLa-S3, A549, and IMR90 cells (8.0 × 10^4 cells) were incubated with CCCP or 2-APB for 1 h and then stained with Rhod-2/AM or Rhod-4/AM (final concentration = 5 μM) for 30 min at 37 °C under 5% CO2. The cells were washed with PBS and were treated with 4 (final concentration = 2.5, 5, or 10 μM) in PBS for 0–60 min at 37 °C in a microplate reader (ARVO, PerkinElmer). Excitation at 540 nm and emission at 590 nm were used for the measurement of Rhod-2/AM and Rhod-4/AM on the microplate reader.

[2] = test system: Ca^2+ concentrations in mitochondria and cytosol in HeLa-S3 cells; test: Rhod-2/AM and Rhod-4/AM emission (mitochondrial and cytosolic Ca2+) in HeLa-S3 cells; format: cell-based, human; details: 4 5 μM 1 h
Description: as §1, §2, §3

[3] = test system: Ca^2+ concentrations in mitochondria in IMR90 cells; test: Rhod-2/AM emission (mitochondrial Ca2+) in IMR90 cells; format: cell-based, human; details: 4 5 μM, 0–60 min
Description: as §2, §3

[4] = test system: Ca^2+ concentrations in mitochondria and cytosol in Jurkat cells; test: Rhod-2/AM and Rhod-4/AM emission (mitochondrial and cytosolic Ca2+) in Jurkat cells; format: cell-based; details: 4 2.5 μM, 0–60 min
Description: as §1
Jurkat, HeLa-S3, A549, and IMR90 cells (2.0 × 10^5 cells) were stained with Rhod-2/AM or Rhod-4/AM (final concentration = 5 μM) for 30 min at 37 °C under 5% CO2. […] After washing with PBS, the cells were observed via fluorescence microscopy (BZ-X800, Keyence) using a Greiner CELLview Petri dish (35 × 10 mm^2). […]
as §3

[5] = test system: A549 cells; test: Costaining of ER and mitochondria (ERTracker Red, MitoTracker Green), confocal microscopy, A549 cells; format: cell-based, human; details: 4 10 μM, 15 min; celastrol 100 μM
Description: (§4) Jurkat, HeLa-S3, A549, and IMR90 cells (2.0 × 10^5 cells) were incubated with 4 (final concentration = 2.5 μM (for Jurkat), 5 μM (for HeLa-S3), 10 μM (for A549) and 5 μM and 50 μM (for IMR90)) in cell culture medium at 37 °C under 5% CO2. After incubation, MitoTracker Green (final concentration = 100 nM (for Jurkat) or 500 nM (for HeLa-S3, A549 and IMR90)), or ERTracker Red (final concentration = 500 nM (for Jurkat) or 1 μM (for HeLa-S3, A549 and IMR90)) were applied for 1 h under the same conditions. After washing with PBS, the cells were observed via confocal fluorescence microscopy (FluoView, FV-1000, Olympus). Excitation at 473 nm and emissions from 485 to 585 nm were used for detecting the MitoTracker Green. Excitation at 559 nm and emissions from 570 to 670 nm were used for detecting the ERTracker Red. Exposure time was 20 μs/pixel.

[6] = test system: HeLa-S3 cells; test: Costaining of ER and mitochondria (ERTracker Red, MitoTracker Green), confocal microscopy, HeLa-S3 cells; format: cell-based, human; details: 4 5 μM, 5 and 10 min; celastrol 100 μM
Description: as §4

[7] = test system: IMR90 cells; test: Costaining of ER and mitochondria (ERTracker Red, MitoTracker Green), confocal microscopy, IMR90 cells; format: cell-based, human; details: 4 5 or 50 μM, 15 or 60 min
Description: as §4

[8] = test system: Jurkat cells; test: cells
Description: (§5) HeLa S3 cells (human cervical carcinoma) were cultured in Minimum essential medium (MEM) containing 10% FBS, penicillin, and streptomycin. A549 cells (human lung carcinoma) and IMR90 cells (human fetal lung fibroblast) were cultured in Dulbecco’s modified Eagle’s medium (DMEM) with 10% FBS, penicillin, and streptomycin. All cells were cultured at 37 °C under a humidified atmosphere containing 5% CO2.
(§6) Jurkat, HeLa-S3, A549 cells (2.0 × 10^5 cells/mL) and IMR90 cells (1.0 × 10^5 cells/mL) were incubated in the presence of 3–7 for 1 h, and etoposide, cisplatin and celastrol for 24 h (50 μL) in cell culture medium under CO2 at 37 °C in 96-well plates (BD Falcon). MTT reagent (5 mg/mL) in PBS (10 μL) was then added to the cells. After incubation at 37 °C for 4 h, a formazan lysis solution (10% sodium dodecyl sulfate (SDS) in 0.01 N HCl) (100 μL) was added and the resultant solution was incubated overnight under the same conditions, which was followed by measurement of the absorbance at 570 nm using a microplate reader (ARVO, PerkinElmer).

[9] = test system: HeLa-S3 cells; test: cells
Description: as §5, §6

[10] = test system: A549 cells; test: cells
Description: as §5, §6

[11] = test system: IMR90 cells; test: cells
Description: as §5, §6

[12] = test system: Jurkat cells; format: cell-based; details: 1 h
Description: MTT reagent (5 mg/mL) in PBS (10 μL) was then added to the cells. After incubation at 37 °C for 4 h, a formazan lysis solution (10% sodium dodecyl sulfate (SDS) in 0.01 N HCl) (100 μL) was added and the resultant solution was incubated overnight under the same conditions, which was followed by measurement of the absorbance at 570 nm using a microplate reader (ARVO, PerkinElmer).

[13] = test system: intracellular Zn^2+ in Jurkat cells; test: Zinquin fluorescence microscopy in Jurkat cells; format: cell-based; details: 4 2.5 μM 1 h; celastrol 5 μM, etoposide 5 μM, cisplatin 100 μM 24 h
Description: (§7) Jurkat cells (2.0 × 10^5 cells) were treated with 4 (2.5 μM), etoposide (5 μM), cisplatin (100 μM) and celastrol (5 μM) and stained with Mito-FerroGreen (a probe for labile Fe^2+ in mitochondria) (5 μM) and zinquin (a probe for intracellular Zn^2+) (25 μM). The cell images were observed via fluorescence microscopy.

[14] = test system: labile Fe^2+ in mitochondria of Jurkat cells; test: Mito-FerroGreen fluorescence microscopy in Jurkat cells; format: cell-based; details: 4 2.5 μM 1 h; celastrol 5 μM, etoposide 5 μM, cisplatin 100 μM 24 h
Description: as §7

[15] = test system: Jurkat cells; test: Costaining of ER and mitochondria (ERTracker Red, MitoTracker Green), confocal microscopy, Jurkat cells; format: cell-based; details: 4 2.5 μM, 15 min
Description: as §4

[16] = target: trypsin (Sus scrofa, UniProt P00761); test: Stability after treatment with trypsin (RP-HPLC); details: 10 μM, trypsin 5 U/mL, 10 mM HEPES pH 7.5, 1 h, 37 °C
trypsin, sequence (P00761 9-231): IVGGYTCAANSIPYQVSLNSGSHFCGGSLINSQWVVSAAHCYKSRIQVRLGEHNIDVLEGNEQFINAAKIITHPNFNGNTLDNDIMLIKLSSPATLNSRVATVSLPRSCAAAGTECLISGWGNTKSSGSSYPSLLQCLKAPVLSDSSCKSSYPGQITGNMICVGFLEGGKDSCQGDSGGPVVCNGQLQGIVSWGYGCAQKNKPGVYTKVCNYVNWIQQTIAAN
Description: 4 and 5 (10 μM) were incubated with trypsin (5 U/mL) in 10 mM 2-[4-(2-hydroxyethyl)-1-piperazinyl]ethanesulfonic acid ((HEPES), pH = 7.5) for 1 h at 37 °C and then analyzed via RP-HPLC (CH3CN (0.1% TFA)/H2O (0.1% TFA) = 20/80 to 70/30 (30 min), 1.0 mL/min).

NCCCC[C@H](NC(=O)[C@H](CCCCN)NC(=O)[C@@H](N)CCCCN)C(=O)N[C@@H](CC1CCCCC1)C(=O)NCC(=O)NCCCCCCCCNC(=O)COc1cccc2c1C1c3c(OCC(=O)NCCCCCCCCNC(=O)CNC(=O)[C@H](CC4CCCCC4)NC(=O)[C@H](CCCCN)NC(=O)[C@H](CCCCN)NC(=O)[C@@H](N)CCCCN)cccc3C2c2cccc(OCC(=O)NCCCCCCCCNC(=O)CNC(=O)[C@H](CC3CCCCC3)NC(=O)[C@H](CCCCN)NC(=O)[C@H](CCCCN)NC(=O)[C@@H](N)CCCCN)c21 [compound 4]
Emission of Rhod-2/AM (mitochondrial Ca2+) in A549 cells [1]: enhancement of the red emission
Emission of Rhod-4/AM (cytosolic Ca2+) in A549 cells [1]: negligible enhancement
Emission of Rhod-4/AM (cytosolic Ca2+) in HeLa-S3 cells ([2]; celastrol 100 μM 2–6 h): negligible enhancement
Emission of Rhod-2/AM (mitochondrial Ca2+) in HeLa-S3 cells ([2]; celastrol or cisplatin 100 μM 2–6 h): enhancement of the red emission
Emission of Rhod-2/AM (mitochondrial Ca2+) in IMR90 cells [3]: somewhat slower emission enhancement
Emission of Rhod-4/AM (cytosolic Ca2+) in Jurkat cells [4]: moderate∼weak enhancement
Overlap of emission from MitoTracker Green and ERTracker Red in A549 cells [5]: considerable overlap
Overlap of emission from MitoTracker Green and ERTracker Red in HeLa-S3 cells [6]: considerable overlap
Overlap of emission from MitoTracker Green and ERTracker Red in IMR90 cells [7]: weak overlap
EC50 ([8]; 1 h): 0.7 ± 0.1 µM
EC50 ([9]; 1 h): 1.6 ± 0.1 µM
EC50 ([10]; 1 h): 2.4 ± 0.1 µM
EC50 ([11]; 1 h): > 12.5 µM
EC50 ([11]; 5 h): 4.4 µM
EC50 [12]: 1.8 µM
Emission from zinquin (intracellular free Zn2+) in Jurkat cells [13]: negligibly enhanced
Emission from Mito-FerroGreen (free Fe2+ in mitochondria) in Jurkat cells [14]: negligibly enhanced
Overlap of emission from MitoTracker Green and ERTracker Red in Jurkat cells [15]: considerable overlap

NCCCC[C@@H]1NC(=O)CNC(=O)[C@H](CCC(=O)NCCCCCCCCNC(=O)COc2cccc3c2C2c4c(OCC(=O)NCCCCCCCCNC(=O)CC[C@@H]5NC(=O)[C@H](CC6CCCCC6)NC(=O)[C@H](CCCCN)NC(=O)[C@H](CCCCN)NC(=O)[C@H](CCCCN)NC(=O)CNC5=O)cccc4C3c3cccc(OCC(=O)NCCCCCCCCNC(=O)CC[C@@H]4NC(=O)[C@H](CC5CCCCC5)NC(=O)[C@H](CCCCN)NC(=O)[C@H](CCCCN)NC(=O)[C@H](CCCCN)NC(=O)CNC4=O)c32)NC(=O)[C@H](CC2CCCCC2)NC(=O)[C@H](CCCCN)NC(=O)[C@H](CCCCN)NC1=O [compound 5] (I: cyclo(KKK[Cha]EG) / II: cyclo(KKK[Cha]EG) / III: cyclo(KKK[Cha]EG); linker I:5-II:5-III:5 via X1)
EC50 ([8]; read-out: EC50 against Jurkat cells, MTT, incubation 1 h at 37 °C): 1.6 ± 0.1 µM
EC50 ([9]; read-out: EC50 against HeLa-S3 cells, MTT, incubation 1 h at 37 °C): 8.5 ± 0.4 µM
EC50 ([10]; read-out: EC50 against A549 cells, MTT, incubation 1 h at 37 °C): 9.5 ± 0.1 µM
EC50 ([11]; read-out: EC50 against IMR90 cells, MTT, incubation 1 h at 37 °C): > 25 µM
Stability against trypsin digestion [16]: negligible decomposition
